Laboratory results: PubChem BioAssay AID1963871 (Molecular Pharmacology Branch, DTP, NCI, 2024)

Test system: KRAS-mutant PDC multicell tumor spheroid viability
Assay: Anticancer human tumor 521955-158-R2-J5-PDC patient-derived pancreatic carcinoma cell line growth inhibition [KRAS2]
Conditions: for IC50: curve of first compound; for viability, T/C: stronger effect = lower value
How it was run: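 Combination screen of spheroid viability in tumor-cell co-cultures with endothelial (HUVEC) and mesenchymal stem cell stroma. Each agent was tested in half-log dilutions, topping at clinical Cmax or at 10 microM without a known Cmax.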

[1] = second compound 0.1 µM, first compound 0.0316 µM
[2] = second compound 0.1 µM, first compound 0.1 µM
[3] = second compound 0.1 µM, first compound 0.316 µM
[4] = second compound 0.1 µM, first compound 1 µM
[5] = second compound 0.316 µM, first compound 0.0316 µM
[6] = second compound 0.316 µM, first compound 0.1 µM
[7] = second compound 0.316 µM, first compound 0.316 µM
[8] = second compound 0.316 µM, first compound 1 µM
[9] = second compound 1 µM, first compound 0.0316 µM
[10] = second compound 1 µM, first compound 0.1 µM
[11] = second compound 1 µM, first compound 0.316 µM
[12] = second compound 1 µM, first compound 1 µM
[13] = second compound 3.16 µM, first compound 0.0316 µM
[14] = second compound 3.16 µM, first compound 0.1 µM
[15] = second compound 3.16 µM, first compound 0.316 µM
[16] = second compound 3.16 µM, first compound 1 µM
[17] = second compound 10 µM, first compound 0.0316 µM
[18] = second compound 10 µM, first compound 0.1 µM
[19] = second compound 10 µM, first compound 0.316 µM
[20] = second compound 10 µM, first compound 1 µM
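Note: viability read after seven days of drug exposure.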

| SMILES | IC50 (second compound 0.1 µM) | IC50 (second compound 0.316 µM) | IC50 (second compound 1 µM) | IC50 (second compound 3.16 µM) | IC50 (second compound 10 µM) | viability, T/C [1] | viability, T/C [2] | viability, T/C [3] | viability, T/C [4] | viability, T/C [5] | viability, T/C [6] | viability, T/C [7] | viability, T/C [8] | viability, T/C [9] | viability, T/C [10] | viability, T/C [11] | viability, T/C [12] | viability, T/C [13] | viability, T/C [14] | viability, T/C [15] | other results |
| --- | --- | --- | --- | --- | --- | --- | --- | --- | --- | --- | --- | --- | --- | --- | --- | --- | --- | --- | --- | --- | --- |
| CCN1CCN(Cc2ccc(Nc3ncc(F)c(-c4cc(F)c5nc(C)n(C(C)C)c5c4)n3)nc2)CC1 + COc1cc2nc(C)nc(NC(C)c3cc(N)cc(C(F)(F)F)c3)c2cc1OC1CCOC1 | > 1000 nM | > 1000 nM | > 1000 nM | > 1000 nM | 464 nM | 79.2% | 79.9% | 85.4% | 76.7% | 79.4% | 71.7% | 85.4% | 76% | 87.5% | 77.4% | 87.7% | 80.8% | 89.3% | 76.7% | 83.2% | viability, T/C (second compound 0.1 µM, first compound 0.00316 µM): 88.2%; viability, T/C (second compound 0.1 µM, first compound 0.01 µM): 84.9%; viability, T/C (second compound 0.316 µM, first compound 0.00316 µM): 92%; viability, T/C (second compound 0.316 µM, first compound 0.01 µM): 89.9%; viability, T/C (second compound 1 µM, first compound 0.00316 µM): 93.1%; viability, T/C (second compound 1 µM, first compound 0.01 µM): 80.2%; viability, T/C (second compound 3.16 µM, first compound 0.00316 µM): 90.5%; viability, T/C (second compound 3.16 µM, first compound 0.01 µM): 101%; viability, T/C [16]: 73%; viability, T/C (second compound 10 µM, first compound 0.00316 µM): 82.9%; viability, T/C (second compound 10 µM, first compound 0.01 µM): 76%; viability, T/C [17]: 74.4%; viability, T/C [18]: 91%; viability, T/C [19]: 74.7%; viability, T/C [20]: 0.5% |
| COc1cc(Nc2ncc3c(n2)-c2ccc(Cl)cc2C(c2c(F)cccc2OC)=NC3)ccc1C(=O)O + COc1cc2nc(C)nc(NC(C)c3cc(N)cc(C(F)(F)F)c3)c2cc1OC1CCOC1 | < 31.6 nM | < 31.6 nM | < 31.6 nM | < 31.6 nM | < 31.6 nM | 40.5% | 35.1% | 41.5% | 37.5% | 45.3% | 38.4% | 40.7% | 36.7% | 46.9% | 35.4% | 39.4% | 40.5% | 38.5% | 32% | 32.5% | viability, T/C (second compound 0.1 µM, first compound 3.16 µM): 37.2%; viability, T/C (second compound 0.1 µM, first compound 10 µM): 33.2%; viability, T/C (second compound 0.316 µM, first compound 3.16 µM): 37.3%; viability, T/C (second compound 0.316 µM, first compound 10 µM): 34.6%; viability, T/C (second compound 1 µM, first compound 3.16 µM): 33%; viability, T/C (second compound 1 µM, first compound 10 µM): 34.2%; viability, T/C [16]: 33.7%; viability, T/C (second compound 3.16 µM, first compound 3.16 µM): 30.1%; viability, T/C (second compound 3.16 µM, first compound 10 µM): 31.6%; viability, T/C [17]: 11.7%; viability, T/C [18]: 2.43%; viability, T/C [19]: 2.29%; viability, T/C [20]: 2.71%; viability, T/C (second compound 10 µM, first compound 3.16 µM): 10.7%; viability, T/C (second compound 10 µM, first compound 10 µM): 2.59% |
